Data on 17 molecules can be found in ChEMBL document CHEMBL5331054, “Antibacterial quaternary ammonium agents: Chemical diversity and biological mechanism” (Eur J Med Chem, 2022).

One assay deals with Enterococcus faecium. Description: Antibacterial activity against vancomycin-resistant Enterococcus faecium 700221 assessed as reduction in bacterial growth inhibition measured after 16 hrs by microplate reader assay. Type of assay: functional.
For assay [1], the system named is Staphylococcus aureus. Description: Antibacterial activity against methicillin-resistant Staphylococcus aureus assessed as bacterial growth inhibition measured after 16 hrs by microplate reader assay. Type of assay: functional.
In assay [2] the test system is Staphylococcus epidermidis. The assay is described as follows: Antibacterial activity against methicillin-resistant Staphylococcus epidermidis assessed as bacterial growth inhibition measured after 16 hrs by microplate reader assay. The format is functional.
The subject of assay [3] is Staphylococcus aureus. Description: Antibacterial activity against methicillin-resistant Staphylococcus aureus […] assessed as reduction in bacterial cell growth. Type of assay: functional.
Assay [4] relates to Staphylococcus aureus. The assay is described as follows: Antibacterial activity against methicillin-resistant Staphylococcus aureus assessed as bacterial growth inhibition measured after 16 to 18 hrs by broth microdilution method. Type of assay: functional. Conditions: time 16-18 hrs. A general note: Dilution methods test growth across graded concentrations, often in twofold steps.

In assay [5] the test system is Pseudomonas aeruginosa. The assay is described as follows: Antibacterial activity against Pseudomonas aeruginosa ATCC 27853 assessed as inhibition of bacterial growth incubated for 16 to 18 hrs by broth microdilution method. Conditions: time 16-18 hrs. Type of assay: functional.
In assay [6] the test system is Staphylococcus aureus. The assay is described as follows: Antibacterial activity against Staphylococcus aureus. Type of assay: functional.
Assay [7] deals with Enterococcus faecalis. The assay is described as follows: Antibacterial activity against Enterococcus faecalis ATCC 29212 assessed as inhibition of bacterial growth incubated for 16 to 18 hrs by broth microdilution method. The format is functional. Conditions: time 16-18 hrs.
Assay [8] deals with Escherichia coli. The assay is described as follows: Antibacterial activity against Escherichia coli ATCC 25922 assessed as inhibition of bacterial growth incubated for 16 to 18 hrs by broth microdilution method. The format is functional. Conditions: time 16-18 hrs.
The subject of assay [9] is Pseudomonas aeruginosa. Description: Antibacterial activity against Pseudomonas aeruginosa ATCC 10145 by broth microdilution method. Type of assay: functional.
For assay [10], the system named is Staphylococcus aureus. Description: Antibacterial activity against methicillin-resistant Staphylococcus aureus assessed as bacterial cell growth inhibition incubated for 18 hrs by microbroth dilution method. The format is functional.
In assay [11] the test system is Escherichia coli. Description: Antibacterial activity against Escherichia coli ATCC 11229 assessed as reduction in bacterial cell growth incubated for 24 hrs by microtiter plate reader assay. The format is functional.
In a further assay the test system is Bacillus subtilis. The assay is described as follows: Antibacterial activity against Bacillus subtilis ATCC 6633 assessed as reduction in bacterial cell growth incubated for 24 hrs by microtiter plate reader assay. The format is functional.
In a further assay the test system is Salmonella enterica. Description: Antibacterial activity against Salmonella enterica ATCC 14028 assessed as reduction in bacterial cell growth incubated for 24 hrs by microtiter plate reader assay. The format is functional.
In assay [12] the test system is Staphylococcus aureus. The assay is described as follows: Antibacterial activity against Staphylococcus aureus ATCC 29213 assessed as bacterial growth inhibition incubated for 24 hrs by broth dilution method. The format is functional.
The test system of assay [13] is Escherichia coli. Description: Antimicrobial activity against Escherichia coli at 50 uM. Type of assay: functional.
Assay [14] has as its system Staphylococcus aureus. The assay is described as follows: Antimicrobial activity against community acquired methicillin-resistant Staphylococcus aureus assessed as reduction in bacterial cell growth. Type of assay: functional.
In assay [15] the test system is Enterococcus faecalis. Description: Antimicrobial activity against Enterococcus faecalis. The format is functional.
Assay [16] has as its system Staphylococcus aureus. The assay is described as follows: Antibacterial activity against Staphylococcus aureus assessed as bacterial growth inhibition incubated for 72 hrs by microdilution assay. The format is functional, organism-based. Conditions: Staphylococcus aureus; time 72 hrs.
The subject of assay [17] is Staphylococcus aureus. The assay is described as follows: Antibacterial activity against methicillin-resistant Staphylococcus aureus assessed as bacterial growth inhibition. The format is functional.
Assay [18] has as its system Escherichia coli. The assay is described as follows: Antibacterial activity against Escherichia coli assessed as reduction in bacterial cell growth. The format is functional.
In a further assay the test system is Klebsiella pneumoniae. Description: Antibacterial activity against Klebsiella pneumoniae ATCC 700603 assessed as inhibition of bacterial cell growth.
In assay [19] the test system is Staphylococcus aureus. Description: Antibacterial activity against Staphylococcus aureus assessed as reduction in bacterial growth inhibition measured after 18 to 24 hrs by micro-broth dilution method. Type of assay: functional. Conditions: time 18-24 hrs.
For assay [20], the system named is Escherichia coli. Description: Antibacterial activity against Escherichia coli assessed as log reduction in bacterial load measured after 5 mins. Type of assay: functional.
Assay [21] concerns Staphylococcus aureus. The assay is described as follows: Antibacterial activity against Staphylococcus aureus assessed as log reduction in bacterial load measured after 5 mins. The format is functional.
The test system of another assay is Streptococcus pyogenes. The assay is described as follows: Antibacterial activity against Streptococcus pyogenes ATCC 19615 assessed as reduction in bacterial growth incubated for 18 hrs by micro-broth dilution assay. The format is functional.
Assay [22] has as its system Staphylococcus aureus. The assay is described as follows: Antibacterial activity against methicillin-sensitive Staphylococcus aureus assessed as reduction in microbial growth. The format is functional.
For assay [23], the system named is Pseudomonas aeruginosa. Description: Antibacterial activity against Pseudomonas aeruginosa assessed as reduction in bacterial cell growth. Type of assay: functional.
Assay [24] has as its system Enterococcus faecalis. The assay is described as follows: Antibacterial activity against Enterococcus faecalis ATCC 29212 assessed as inhibition of bacterial growth incubated for 16 hrs by CLSI based broth microdilution method. Type of assay: functional.
For assay [25], the system named is Enterococcus faecalis. Description: Antibacterial activity against vancomycin-resistant Enterococcus faecalis assessed as inhibition of bacterial growth incubated for 16 hrs by CLSI based broth microdilution method. The format is functional.
Assay [26] has as its system Pseudomonas aeruginosa. Description: Antibacterial activity against Pseudomonas aeruginosa ATCC 27853 assessed as inhibition of bacterial growth incubated for 16 hrs by CLSI based broth microdilution method. The format is functional.
The test system of assay [27] is Staphylococcus aureus. Description: Antibacterial activity against Staphylococcus aureus ATCC 29213 assessed as inhibition of bacterial growth incubated for 16 hrs by CLSI based broth microdilution method. Type of assay: functional.
Assay [28] deals with Staphylococcus aureus. Description: Antibacterial activity against methicillin resistant Staphylococcus aureus assessed as reduction in bacterial cell growth incubated for 18 to 24 hrs by microbroth dilution assay. Conditions: time 18-24 hrs. The format is functional.
In assay [29] the test system is Staphylococcus aureus. Description: Antibacterial activity against Staphylococcus aureus assessed as bacterial growth inhibition. Type of assay: functional.
Assay [30] concerns Staphylococcus aureus. Description: Antibacterial activity against Staphylococcus aureus ATCC 700699 assessed as reduction in bacterial cell growth incubated for 24 hrs by microtiter plate reader assay. The format is functional.
Assay [31] concerns Escherichia coli. Description: Antibacterial activity against Escherichia coli assessed as bacterial growth inhibition incubated for 72 hrs by microdilution method. The format is functional. Conditions: Escherichia coli, 72 h, read-out: MIC.
Assay [32] has as its system Enterococcus faecalis. Description: Antibacterial activity against Enterococcus faecalis assessed as bacterial growth inhibition incubated for 72 hrs by microdilution method. Type of assay: functional.
In assay [33] the test system is Pseudomonas aeruginosa. The assay is described as follows: Antibacterial activity against Pseudomonas aeruginosa assessed as bacterial growth inhibition incubated for 72 hrs by microdilution method. Type of assay: functional. Conditions: Pseudomonas aeruginosa, 72 h, read-out: MIC.
The subject of assay [34] is Staphylococcus aureus. Description: Antibiofilm activity against Staphylococcus aureus ATCC 33591 assessed as reduction in biofilm activity. The format is functional.
The subject of assay [35] is Staphylococcus aureus. The assay is described as follows: Antibacterial activity against Staphylococcus aureus […] assessed as reduction in bacterial growth inhibition measured after 24 hrs. The format is functional.

One may read the MIC as the smallest concentration in the dilution series that meets the test's criterion for growth inhibition. `CCCCCCCCCCCCCCCCn1cc[n+](Cc2cccc(F)c2)c1C`: the MIC (with Enterococcus faecium; with Staphylococcus aureus [1]; in assay [2]) was 1.17 µM each time.

For `CCCCCCCCCCCC[n+]1cccc(C[N+](C)(C)CCCCCCCCCCCC)c1`, the MIC in the assay with Staphylococcus aureus [3] worked out at 1 µM.

In the case of `CCCCCCCCCCCC[N+]12CC[N+](CCCCCCCCCCCC)(CC1)CC2`, the MIC in the assay with Staphylococcus aureus [4] amounted to 0.5 µM; in the assay with Pseudomonas aeruginosa [5] it was 8 µM; against Staphylococcus aureus [6], 0.25 µM; with Enterococcus faecalis [7], 4 µM; with Escherichia coli [8], 2 µM.

Take `CCCCCCCC[n+]1ccc(SCCCCCCSc2cc[n+](CCCCCCCC)cc2)cc1.[Br-].[Br-]`: the MIC with Pseudomonas aeruginosa [9] and in the assay on Staphylococcus aureus [10] was 8 µg/mL each time.

As for `CCCCCCCCCCCCCCCCCCNC(=O)CC[C@@H](C)[C@H]1CC[C@H]2[C@@H]3[C@H](OC(=O)C[n+]4ccccc4)C[C@@H]4C[C@H](OC(=O)C[n+]5ccccc5)CC[C@]4(C)[C@H]3C[C@H](O)[C@]12C.[Cl-].[Cl-]`, the MIC was determined as 0.8 µg/mL with Escherichia coli [11], 0.8 µg/mL in the assay on Bacillus subtilis and 1.6 µg/mL in the assay with Salmonella enterica.

In the case of `CCCC1OCc2c(CO)c(C[N+](C)(C/C=C/C#CC(C)(C)C)Cc3cccc4ccccc34)nc(C)c2O1.[Br-]` (stereo not drawn), in the assay with Staphylococcus aureus [12], the MIC worked out at 4 µg/mL.

As for `CCCCCCCCCCC[n+]1ccc(CCCc2cc[n+](CCCCCCCCCCC)cc2)cc1`, the MIC in the assay with Escherichia coli [13] was determined as 0.5 µM; in the assay on Staphylococcus aureus [14], 0.25 µM; against Enterococcus faecalis [15] it was 0.5 µM; in the assay on Staphylococcus aureus [16], 0.25 µM; in the assay with Staphylococcus aureus [17], 0.25 µM.

Take `CCCCCCCCC[n+]1cccc(Oc2ccc(-c3ccc(Oc4ccc[n+](CCCCCCCCC)c4)cc3)cc2)c1.[I-].[I-]`: the values for the MIC in the assay with Escherichia coli [18], in the assay with Staphylococcus aureus [17] and in the assay on Klebsiella pneumoniae were 0.5 µg/mL, below 0.25 µg/mL and 8 µg/mL, respectively.

In the case of `C[N+](C)(C)CCNC(=O)[C@H](Cc1c[nH]c2ccccc12)NC(=O)c1cc(Cl)ccc1NC(=O)c1ccc2ccccc2c1`, in the assay on Staphylococcus aureus [19], the MIC was determined as 15.6 µM.

On to `CC1(C)C(=O)N(CCCCCCCCCCCC[n+]2ccccc2)C(=O)N1Cl.[Cl-]`, for which the “log(activity)” value in the assay on Escherichia coli [20] was found to be 2.16; in the assay on Staphylococcus aureus [21], 6.62.

On to `CCCCCCCCCCCCCCC[n+]1ccn(Cc2ccccc2)c1.[Br-]`, for which the MIC in the assay with Streptococcus pyogenes turned out to be 0.03 µg/mL.

Regarding `CCCCCCCCCCC[n+]1ccc(CCc2cc[n+](CCCCCCCCCCC)cc2)cc1`, the MIC with Staphylococcus aureus [22] worked out at 1 µM; in the assay with Pseudomonas aeruginosa [23], 4 µM.

Take `CC(C)(C)n1cc[n+](CCCCCCCCCCCC[n+]2ccn(C(C)(C)C)c2)c1.[Br-].[Br-]`: the MIC in the assay on Enterococcus faecalis [24] amounted to 0.5 µg/mL; with Enterococcus faecalis [25] it was 0.5 µg/mL; in the assay on Pseudomonas aeruginosa [26], 4 µg/mL; in the assay on Escherichia coli [11], 0.5 µg/mL; in the assay with Staphylococcus aureus [27], 0.25 µg/mL; in the assay on Staphylococcus aureus [28], 0.5 µg/mL.

For the molecule `CCCCCCCCS(=O)(=O)Nc1ccc(-c2ccc(Cl)cc2)cc1C(=O)C(=O)NCCC[N+](C)(C)C.[I-]`, the MIC in the assay with Staphylococcus aureus [29] came to 8 µg/mL.

Take `CCCCCCCCCCCCCCCCCC[N+](C)(C)Cc1cnc(C)c(O)c1C.Cl.[Cl-]`: in the assay with Staphylococcus aureus [30], the MIC came to 0.5 µg/mL.

As to `CCCCCCCCCCCCC[N+](C)(C)CCCN(C)CCC[N+](C)(C)CCCCCCCCCCCC.[Br-].[Br-]`, the MIC in the assay with Escherichia coli [31] was below 0.25 µM; in the assay with Enterococcus faecalis [32], below 0.25 µM; in the assay on Pseudomonas aeruginosa [33], 4 µM; in the assay on Staphylococcus aureus [16], 1 µM. The MBEC with Staphylococcus aureus [34] is 50 µM.

In the case of `CCOC(=O)c1c[n+](C(C)C)c2cc3c(cc2c1Nc1ccc(OCc2ccccc2)cc1)OCO3`, in the assay with Staphylococcus aureus [35], the MIC turned out to be 3.12 µM.
